Source: patent US10166225B2, “Method for treating osteoporosis” (Exelixis, Inc., priority 2011, dated 2019)
Where two headings read alike, the source gives them in different places.

Tested on: KS483 mouse osteoprogenitor cells
Assay: Osteoblast activity assay (PINP at day 11, calcium deposition at day 13)
Assay type: cell-based
Settings: for activity at 0.004 µM / activity at 0.012 µM / activity at 0.037 µM / activity at 0.11 µM / activity at 0.33 µM / activity at 1 µM / activity at 3 µM: Mus musculus, Osteoblast; for activity at 0.004 µM: 0.004 μM Compound 1; for activity at 0.012 µM: 0.012 μM Compound 1; for activity at 0.037 µM: 0.037 μM Compound 1; for activity at 0.11 µM: 0.11 μM Compound 1; for activity at 0.33 µM: 0.33 μM Compound 1; for activity at 1 µM: 1.0 μM Compound 1; for activity at 3 µM: 3.0 μM Compound 1
Protocol: The effects on osteoblasts were studied using KS483 mouse osteoprogenitor cells that can be induced to differentiate into bone-forming osteoblasts. […] In the osteoblast differentiation assay, the cells were cultured for 8 days, after which the formed mature osteoblasts were quantitated by measuring the amount of intracellular alkaline phosphatase (ALP) activity. […] A culture system was established that can be used as an in vitro model for studying the effects of anabolic and estrogen-like compounds on osteoblast differentiation and activity. In this culture system mouse KS483 cells first proliferate and then differentiate into osteoblasts capable of forming mineralized bone nodules in the presence of ascorbic acid and ß-glycerophosphate (Fagerlund et al. 2009). The test and reference compounds are added into the cell cultures concomitantly with the medium change, and their effects on the differentiation and activity of osteoblasts are determined. Cellular ALP, a marker of osteoblast differentiation, is determined from the cell lysates as described earlier (Lowry et al. 1954). Secreted PINP, a marker of organic bone matrix formation, is determined from the culture medium using a commercially available method (Rat/Mouse PINP EIA, IDS Ltd, Boldon, UK). Calcium deposition, an index of inorganic bone matrix formation, is measured using a commercially available calcium assay (Roche Diagnostics). Mouse KS483 cells were cultured in T-75 tissue culture flasks in aMEM supplemented with 10% charcoal-stripped fetal bovine serum until 80-90% confluence. The cells were incubated in a CO2 incubator in humidified atmosphere of 95% air and 5% carbon dioxide at 37° C. After reaching 80-90% confluence, subcultures were prepared. Cells were removed from the flasks with trypsin treatment and counted. For induction of the maturation of osteoblasts and bone formation, the immature osteoblastic cells were plated in type I collagen-coated 96-well plates. The cells were cultured for 13 days with a supplement of ascorbic acid (50 μg/ml) and ß-glycerophosphate (5 mM), and half of the media was changed every 3-4 days. The test compound and control substance (E2) were added in the beginning of the culture period and when the medium was changed. Secreted PINP was measured from the culture medium at day 11 as a marker of organic bone matrix formation. The cultures were stopped at day 13 by removing the culture media from the wells and adding hydrochloric acid. Calcium deposited into the formed bone matrix was quantitated by using VICTOR2™ Multilabel Counter (PerkinElmer, Waltham, Mass., USA).

[1] = 0.004, 0.012, 0.037 and 0.11 μM
[2] = 264 h, read-out: PINP Activity at Day 11, Percent Activity (%) Compared to BL
[3] = 312 h, read-out: Calcium Deposition at Day 13, Percent Activity (%) Compared to BL

## COc1cc2nccc(Oc3ccc(NC(=O)C4(C(=O)Nc5ccc(F)cc5)CC4)cc3)c2cc1OC [Compound 1, N-(4-{[6,7-bis(methyloxy)quinolin-4-yl]oxy}phenyl)-N′-(4-fluorophenyl)cyclopropane-1,1-dicarboxamide]
[1]
  bone forming activity of osteoblasts: dose-dependent stimulation
  calcium values: increased
0.012 and 0.037 μM
  PINP values: increased
0.33, 1.0 and 3.0 μM
  PINP values: decreased
  bone forming activity of osteoblasts: inhibitory effects
  calcium values: decreased
[2]
  activity at 0.004 µM: 117%
  activity at 0.012 µM: 122%
  activity at 0.037 µM: 135%
  activity at 0.11 µM: 101%
  activity at 0.33 µM: 73%
  activity at 1 µM: 42%
  activity at 3 µM: 21%
[3]
  activity at 0.004 µM: 145%
  activity at 0.012 µM: 167%
  activity at 0.037 µM: 180%
  activity at 0.11 µM: 144%
  activity at 0.33 µM: 59%
  activity at 1 µM: 12%
  activity at 3 µM: 4%
